Converted amounts (≈) assume the structure as drawn.
Columns and labels:
Pseudomonas aeruginosa = assay: Antibacterial activity against Pseudomonas aeruginosa NCIM 2036 after 24 hr by broth dilution method; assay type: functional; conditions: NCIM 2036, 24 h
[1] = Solubility of the compound in ethanol; assay type: physicochemical
Bacillus subtilis = assay: Antibacterial activity against Bacillus subtilis NCIM 2063 after 24 hr by broth dilution method; assay type: functional; conditions: NCIM 2063, 24 h
[2] = Solubility of the compound in acetic acid; assay type: physicochemical
[3] = Solubility of the compound in DMF; assay type: physicochemical
[4] = Solubility of the compound in dilute acids; assay type: physicochemical
[5] = Solubility of the compound in ethyl acetate; assay type: physicochemical
Staphylococcus aureus = assay: Antibacterial activity against Staphylococcus aureus NCIM 2079 after 24 hr by broth dilution method; assay type: functional; conditions: NCIM 2079, 24 h
[6] = Solubility of the compound in benzene; assay type: physicochemical
Klebsiella pneumoniae = assay: Antibacterial activity against Klebsiella pneumoniae NCIM 2706 after 24 hr by broth dilution method; assay type: functional; conditions: NCIM 2706, 24 h
[7] = Solubility of the compound in DMSO; assay type: physicochemical
Bacillus cereus = assay: Antibacterial activity against Bacillus cereus NCIM 2156 after 24 hr by broth dilution method; assay type: functional; conditions: NCIM 2156, 24 h
Escherichia coli = assay: Antibacterial activity against Escherichia coli NCIM 2065 after 24 hr by broth dilution method; assay type: functional; conditions: NCIM 2065, 24 h
[8] = Solubility of the compound in chloroform; assay type: physicochemical
[9] = Solubility of the compound in water; assay type: physicochemical

MIC (Pseudomonas aeruginosa) [µg/mL]	solubility [1]	MIC (Bacillus subtilis) [µg/mL]	solubility [2]	solubility [3]	solubility [4]	solubility [5]	MIC (Staphylococcus aureus) [µg/mL]	solubility [6]	MIC (Klebsiella pneumoniae) [µg/mL]	solubility [7]	MIC (Bacillus cereus) [µg/mL]	MIC (Escherichia coli) [µg/mL]	solubility [8]	solubility [9]	Structure (SMILES)
3.12 (≈ 5.46 µM)	soluble	6.25 (≈ 10.9 µM)	Insoluble	soluble	soluble	Insoluble	3.12 (≈ 5.46 µM)	soluble	6.25 (≈ 10.9 µM)	soluble	6.25 (≈ 10.9 µM)	6.25 (≈ 10.9 µM)	Insoluble	soluble	O=[N+]([O-])c1ccc(Nc2nc(Nc3ccc([N+](=O)[O-])cc3)nc(Nc3nc(-c4ccc([N+](=O)[O-])cc4)cs3)n2)cc1
25 (≈ 64.5 µM)	soluble	100 (≈ 258 µM)	soluble	Insoluble	soluble	soluble	50 (≈ 129 µM)	Insoluble	100 (≈ 258 µM)	soluble	100 (≈ 258 µM)	50 (≈ 129 µM)	soluble	soluble	O=[N+]([O-])c1ccc(Nc2nc(Cl)nc(Nc3ccc([N+](=O)[O-])cc3)n2)cc1
3.12 (≈ 5.32 µM)	soluble	100 (≈ 170 µM)	Insoluble	soluble	soluble	soluble	50 (≈ 85.1 µM)	soluble	25 (≈ 42.6 µM)	soluble	25 (≈ 42.6 µM)	12.5 (≈ 21.3 µM)	soluble	soluble	O=[N+]([O-])c1ccc(-c2csc(Nc3nc(Nc4ccc(F)c(Cl)c4)nc(Nc4ccc(F)c(Cl)c4)n3)n2)cc1
–	soluble	–	Insoluble	soluble	soluble	soluble	–	soluble	–	soluble	–	–	soluble	soluble	Nc1nc(-c2ccc(Cl)cc2)cs1
100 (≈ 220 µM)	soluble	100 (≈ 220 µM)	soluble	Insoluble	soluble	soluble	100 (≈ 220 µM)	soluble	100 (≈ 220 µM)	soluble	100 (≈ 220 µM)	100 (≈ 220 µM)	Insoluble	Insoluble	Clc1nc(Nc2ccc(Br)cc2)nc(Nc2ccc(Br)cc2)n1
6.25 (≈ 11.3 µM)	soluble	25 (≈ 45.3 µM)	Insoluble	soluble	soluble	Insoluble	25 (≈ 45.3 µM)	soluble	6.25 (≈ 11.3 µM)	soluble	12.5 (≈ 22.7 µM)	12.5 (≈ 22.7 µM)	Insoluble	soluble	O=[N+]([O-])c1ccc(-c2csc(Nc3nc(Nc4ccc(Cl)cc4)nc(Nc4ccc(Cl)cc4)n3)n2)cc1
100 (≈ 300 µM)	soluble	50 (≈ 150 µM)	soluble	Insoluble	Insoluble	Insoluble	100 (≈ 300 µM)	soluble	50 (≈ 150 µM)	soluble	50 (≈ 150 µM)	50 (≈ 150 µM)	Insoluble	soluble	Fc1ccc(Nc2nc(Cl)nc(Nc3ccc(F)cc3)n2)cc1
50 (≈ 136 µM)	soluble	50 (≈ 136 µM)	soluble	Insoluble	Insoluble	Insoluble	50 (≈ 136 µM)	–	25 (≈ 68.2 µM)	soluble	100 (≈ 273 µM)	25 (≈ 68.2 µM)	soluble	Insoluble	Clc1ccc(Nc2nc(Cl)nc(Nc3ccc(Cl)cc3)n2)cc1
50 (≈ 78.1 µM)	soluble	100 (≈ 156 µM)	soluble	soluble	soluble	soluble	100 (≈ 156 µM)	soluble	100 (≈ 156 µM)	soluble	100 (≈ 156 µM)	100 (≈ 156 µM)	Insoluble	soluble	O=[N+]([O-])c1ccc(-c2csc(Nc3nc(Nc4ccc(Br)cc4)nc(Nc4ccc(Br)cc4)n3)n2)cc1
25 (≈ 48.2 µM)	soluble	50 (≈ 96.4 µM)	Insoluble	soluble	soluble	Insoluble	50 (≈ 96.4 µM)	soluble	50 (≈ 96.4 µM)	soluble	100 (≈ 193 µM)	25 (≈ 48.2 µM)	soluble	soluble	O=[N+]([O-])c1ccc(-c2csc(Nc3nc(Nc4ccc(F)cc4)nc(Nc4ccc(F)cc4)n3)n2)cc1
100 (≈ 248 µM)	soluble	100 (≈ 248 µM)	soluble	–	soluble	–	50 (≈ 124 µM)	soluble	100 (≈ 248 µM)	soluble	100 (≈ 248 µM)	100 (≈ 248 µM)	–	soluble	Fc1ccc(Nc2nc(Cl)nc(Nc3ccc(F)c(Cl)c3)n2)cc1Cl
25 (≈ 43.3 µM)	soluble	50 (≈ 86.7 µM)	Insoluble	soluble	soluble	soluble	25 (≈ 43.3 µM)	soluble	12.5 (≈ 21.7 µM)	soluble	100 (≈ 173 µM)	12.5 (≈ 21.7 µM)	soluble	soluble	Fc1ccc(Nc2nc(Nc3ccc(F)c(Cl)c3)nc(Nc3nc(-c4ccc(Cl)cc4)cs3)n2)cc1Cl
–	soluble	–	Insoluble	soluble	soluble	soluble	–	soluble	–	soluble	–	–	soluble	soluble	Nc1nc(-c2ccc([N+](=O)[O-])cc2)cs1

Structure (SMILES)	MIC (Pseudomonas aeruginosa) [µg/mL]	solubility [1]	MIC (Bacillus subtilis) [µg/mL]	solubility [2]	solubility [3]	solubility [4]	solubility [5]	MIC (Staphylococcus aureus) [µg/mL]	solubility [6]	MIC (Klebsiella pneumoniae) [µg/mL]	solubility [7]	MIC (Bacillus cereus) [µg/mL]	MIC (Escherichia coli) [µg/mL]	solubility [8]	solubility [9]
CN[C@@H]1[C@H](O[C@H]2[C@H](O[C@H]3[C@H](O)[C@@H](O)[C@H](N=C(N)N)[C@@H](O)[C@@H]3N=C(N)N)O[C@@H](C)[C@]2(O)C=O)O[C@@H](CO)[C@H](O)[C@H]1O [STREPTOMYCIN]	3.12 (≈ 5.37 µM)	–	6.25 (≈ 10.7 µM)	–	–	–	–	3.12 (≈ 5.37 µM)	–	6.25 (≈ 10.7 µM)	–	3.12 (≈ 5.37 µM)	6.25 (≈ 10.7 µM)	–	–
